What all share (type): toxicity, cell-based
The subject of one data set is Fibroblast. The data set can be described thus: Incucyte cell viability with human fibroblast. Conditions: 10 µM, compound concentration 10 uM.
In a further data set the test system is HEK-293T. The data set can be described thus: Incucyte cell viability with HEK293T. Conditions: human, 10 µM, compound concentration 10 uM.
For the next data set, the system named is U2OS. The experiment in a line: Incucyte cell viability with U2OS. Conditions: human, 10 µM, compound concentration 10 uM.
Setting [1] is: 0 h, replicate number 1, timepoint 0 hours.
The mark [2] stands for this setting: 0 h, replicate number 2, timepoint 0 hours.
Where [3] appears, read: 6 h, replicate number 1, timepoint 6 hours.
[4] abbreviates: 6 h, replicate number 2, timepoint 6 hours.
Where [5] appears, read: 12 h, replicate number 1, timepoint 12 hours.
Setting [6] is: 18 h, replicate number 1, timepoint 18 hours.
The mark [7] stands for this setting: 24 h, replicate number 1, timepoint 24 hours.
[8] abbreviates: 18 h, replicate number 2, timepoint 18 hours.
Setting [9] is: 12 h, replicate number 2, timepoint 12 hours.
Setting [10] is: 24 h, replicate number 2, timepoint 24 hours.
Note: unitless GR value; below 1 slowed growth and below 0 cell loss.

As for `Nc1nc(CC(=O)Nc2ccc(CCNC[C@H](O)c3ccccc3)cc2)cs1` [MIRABEGRON], the “Growth Rate” value with Fibroblast (setting [1]) stood at 0.35; with Fibroblast (setting [2]), 0.45; in the data set with Fibroblast (setting [3]), 0.68; in the data set with Fibroblast (setting [4]) it was 0.56; in the data set with Fibroblast (setting [5]) it was 0.9; in the data set with HEK-293T (setting [1]), 0.8. Besides, the “Growth Rate” value in the data set with HEK-293T (setting [2]) came out at 0.62; in the data set with U2OS (setting [1]), 0.18; in the data set on U2OS (setting [5]), 0.95; with U2OS (setting [6]), 0.54.
As for `Cc1ccc2c(c1CCC(=O)O)CC[C@@H](NS(=O)(=O)c1ccc(Cl)cc1)C2` [TERUTROBAN], the “Growth Rate” value with Fibroblast (setting [1]) is -0.56; with Fibroblast (setting [2]), 0; in the data set with Fibroblast (setting [7]) it was 0.83; in the data set on HEK-293T (setting [1]) it was 0.06; in the data set with HEK-293T (setting [2]), 0.31; in the data set with HEK-293T (setting [3]), 0.87. The “Growth Rate” value in the data set with HEK-293T (setting [6]) is on record as 0.99; in the data set with HEK-293T (setting [8]), 0.97; in the data set with HEK-293T (setting [7]), 0.94; with U2OS (setting [1]), -0.59; in the data set with U2OS (setting [2]), -1.
For the molecule `CN[C@@H](C)C(=O)N[C@H](C(=O)N1CCC[C@H]1C(=O)Nc1snnc1-c1ccccc1)C1CCCCC1` [GDC-0152], the “Growth Rate” value in the data set with Fibroblast (setting [1]) is 0.95; in the data set with Fibroblast (setting [2]), 0.59; in the data set on Fibroblast (setting [3]) it was -0.81; in the data set on Fibroblast (setting [4]), -0.33; with Fibroblast (setting [5]), -0.63; in the data set on Fibroblast (setting [9]), -0.17. The “Growth Rate” value in the data set with Fibroblast (setting [6]) was -0.58; in the data set with Fibroblast (setting [8]), -0.22; in the data set on Fibroblast (setting [7]), -0.44; with Fibroblast (setting [10]), -0.21; with HEK-293T (setting [1]), 0.68; in the data set on HEK-293T (setting [2]), 0.53. For the same molecule, the “Growth Rate” value is reported as 0.43 in the data set with HEK-293T (setting [3]); 0.37 with HEK-293T (setting [5]); 0.71 with HEK-293T (setting [9]); 0.36 with HEK-293T (setting [6]); 0.66 in the data set with HEK-293T (setting [8]); 0.4 in the data set with HEK-293T (setting [7]). For the same molecule, the “Growth Rate” value in the data set with HEK-293T (setting [10]) is 0.52; in the data set on U2OS (setting [1]) it was -0.64; with U2OS (setting [2]), 0.74; with U2OS (setting [3]), 0.5; with U2OS (setting [5]), 0.49; in the data set with U2OS (setting [6]) it was 0.87.
As to `Cc1ccc(/C(=C\CN2CCCC2)c2ccccn2)cc1` [TRIPROLIDINE], the “Growth Rate” value was 0.54 with Fibroblast (setting [1]); 0.74 in the data set on Fibroblast (setting [2]); 0.96 in the data set on Fibroblast (setting [3]); 0.98 in the data set with Fibroblast (setting [6]); 0.88 in the data set on Fibroblast (setting [7]); 0.8 with HEK-293T (setting [4]). In addition, the “Growth Rate” value with U2OS (setting [3]) is given as -0.54; in the data set on U2OS (setting [4]) it was 0.77; in the data set on U2OS (setting [5]), 0.38; with U2OS (setting [9]), 0.88; in the data set on U2OS (setting [6]), 0.76; in the data set on U2OS (setting [8]) it was 0.96. Also, the “Growth Rate” value in the data set with U2OS (setting [7]) was 0.83; in the data set with U2OS (setting [10]), 0.94.
With `C[C@H](NC(=O)CNC(=O)c1cccc(Cl)c1)c1ccccc1`, the “Growth Rate” value was 0.45 in the data set with Fibroblast (setting [1]); 0.36 in the data set with Fibroblast (setting [2]); 0.84 in the data set with HEK-293T (setting [2]); 0.96 in the data set on HEK-293T (setting [9]); -0.7 in the data set with U2OS (setting [1]); 0.8 in the data set on U2OS (setting [4]). Besides, the figures for the “Growth Rate” value with U2OS (setting [9]), with U2OS (setting [8]) and with U2OS (setting [10]) were 0.94, 0.91 and 0.98, respectively.
`Cc1ccc(-c2ccc(F)cc2COc2ccc(CCC(=O)O)cc2)cc1`: the “Growth Rate” value with Fibroblast (setting [2]) was 0.45; in the data set on Fibroblast (setting [3]), 0.23; in the data set with Fibroblast (setting [5]), 0.58; in the data set with Fibroblast (setting [6]), 0.18; in the data set on Fibroblast (setting [7]) it was 0.42; with HEK-293T (setting [1]), 0.43. In addition, the entries for the “Growth Rate” value in the data set on HEK-293T (setting [2]), with U2OS (setting [1]) and with U2OS (setting [2]) were 0.55, -0.34 and -0.59, respectively.
Turning to `CC[C@H]1OC(=O)[C@H](C)[C@@H](O[C@H]2C[C@@](C)(OC)[C@@H](O)[C@H](C)O2)[C@H](C)[C@@H](O[C@@H]2O[C@H](C)C[C@H](N(C)C)[C@H]2O)[C@@]2(C)CC(C)=C(O2)[C@H](C)[C@@H](O)[C@]1(C)O`, the “Growth Rate” value with Fibroblast (setting [3]) is given as 0.46; in the data set on Fibroblast (setting [4]) it was 0.95; in the data set with Fibroblast (setting [5]), 0.38; in the data set with Fibroblast (setting [9]), 0.44; in the data set on Fibroblast (setting [6]), 0.44; in the data set with Fibroblast (setting [7]) it was 0.64. For the same molecule, the “Growth Rate” value was found to be 0.55 in the data set on HEK-293T (setting [4]); 0.77 in the data set on HEK-293T (setting [9]); 0.75 with HEK-293T (setting [8]); 0.82 in the data set with HEK-293T (setting [10]); 0.96 in the data set with U2OS (setting [8]).
With `CCNC(=O)[C@H]1O[C@@H](n2cnc3c(N)nc(NCCc4ccc(CCC(=O)O)cc4)nc32)[C@H](O)[C@@H]1O.Cl`, the “Growth Rate” value in the data set on Fibroblast (setting [2]) worked out at 0.98; in the data set with Fibroblast (setting [3]), 0.96; with Fibroblast (setting [4]), 0.47; in the data set on Fibroblast (setting [9]), 0.63; with HEK-293T (setting [1]), 0.05; in the data set on HEK-293T (setting [2]), 0.1. Further, the “Growth Rate” value with HEK-293T (setting [3]) is reported as 0.95; in the data set on U2OS (setting [1]) it was -0.07; in the data set on U2OS (setting [3]), 0; in the data set on U2OS (setting [4]), 0.99; in the data set on U2OS (setting [5]) it was 0.64; in the data set on U2OS (setting [6]) it was 0.96. Moreover, in the data set with U2OS (setting [10]), the “Growth Rate” value was 0.97.
Turning to `CCCCC[C@H](O)/C=C/[C@H]1CCC(=O)[C@@H]1CCCCCCC(=O)O`, the “Growth Rate” value in the data set on Fibroblast (setting [1]) is given as -0.34; in the data set on Fibroblast (setting [2]), -0.08; with Fibroblast (setting [7]) it was 0.96; in the data set on HEK-293T (setting [1]), 0.81; in the data set with HEK-293T (setting [2]) it was -0.24; in the data set on HEK-293T (setting [3]) it was 0.64. The “Growth Rate” value in the data set on HEK-293T (setting [4]) amounted to 0.48; with HEK-293T (setting [5]) it was 0.56; in the data set on HEK-293T (setting [9]), 0.7; in the data set with HEK-293T (setting [6]), 0.7; with HEK-293T (setting [8]), 0.73; in the data set with HEK-293T (setting [7]) it was 0.77. Further, the “Growth Rate” value with HEK-293T (setting [10]) is 0.67; in the data set with U2OS (setting [1]) it was 0.47; in the data set with U2OS (setting [3]), 0.51; with U2OS (setting [5]), 0.66; in the data set with U2OS (setting [6]), 0.5; in the data set with U2OS (setting [7]), 0.96.
For `CN(C)C/C=C/C(=O)Nc1ccc(C(=O)N2CCCC(Nc3ncc(Cl)c(-c4c[nH]c5ccccc45)n3)C2)cc1` (stereo not drawn), the “Growth Rate” value in the data set with Fibroblast (setting [3]) is -0.96; with Fibroblast (setting [4]) it was -0.55; in the data set on Fibroblast (setting [5]), -0.75; with Fibroblast (setting [9]) it was -0.33; with Fibroblast (setting [6]), -0.7; with Fibroblast (setting [8]), -0.1. Also, the “Growth Rate” value in the data set with Fibroblast (setting [7]) is on record as -0.55; in the data set with Fibroblast (setting [10]) it was -0.06; in the data set with HEK-293T (setting [3]), -0.75; in the data set on HEK-293T (setting [4]), -0.93; in the data set with HEK-293T (setting [5]), -0.58; in the data set on HEK-293T (setting [9]), -0.66. In addition, the “Growth Rate” value in the data set with HEK-293T (setting [6]) is reported as -0.42; with HEK-293T (setting [8]), -0.43; in the data set with HEK-293T (setting [7]), -0.27; in the data set with HEK-293T (setting [10]), -0.31; in the data set with U2OS (setting [1]), -0.56; with U2OS (setting [2]), 0.12. The “Growth Rate” value in the data set on U2OS (setting [3]) stood at 0.53; in the data set on U2OS (setting [5]), 0.51; with U2OS (setting [9]), 0.63; in the data set with U2OS (setting [6]) it was 0.27; in the data set on U2OS (setting [8]), 0.26; with U2OS (setting [7]) it was 0.09. The “Growth Rate” value with U2OS (setting [10]) worked out at 0.13.
In the case of `c1cc(OCCCN2CCCCC2)ccc1CN1CCCCC1` [JNJ-5207852], the “Growth Rate” value in the data set on Fibroblast (setting [1]) is recorded as 0.03; with Fibroblast (setting [3]), 0.31; with Fibroblast (setting [9]) it was 0.6; in the data set with Fibroblast (setting [7]), 0.68; with HEK-293T (setting [4]), 0.82; in the data set with U2OS (setting [1]), -0.13. Moreover, the “Growth Rate” value is 0.76 in the data set on U2OS (setting [4]), 0.92 in the data set with U2OS (setting [9]) and 0.94 with U2OS (setting [8]).

The values are drawn from ChEMBL document CHEMBL5058564, “EUbOPEN Chemogenomics Library 2 (Incucyte)” (2022).
